Data set [1] is described as follows: Vitamin E acetate in rabbit aqueous humor samples. As to conditions: days 1, 4, 7, 12; quantification limit 1.0 ng/mL. It counts as in vivo.
Data set [2] in a line: Vitamin E acetate in rabbit tear samples after single 50 μL instillation. In kind it is in vivo. On the procedure:
Subsequently, tear samples were collected using filter paper strips, and the vitamin E acetate contained in the paper strips extracted using methanol. The amount of vitamin E acetate in the methanol extracts was analyzed using LC/MS/MS by known methods.

Structures are written as SMILES.

Consider `CC(=O)Oc1c(C)c(C)c2c(c1C)CC[C@@](C)(CCC[C@H](C)CCC[C@H](C)CCCC(C)C)O2` [Vitamin E acetate, [(2R)-2,5,7,8-tetramethyl-2-[(4R,8R)-4,8,12-trimethyltridecyl]chroman-6-yl] acetate], for which, in data set [1], the “Vitamin E acetate in aqueous humor samples” value is “No detectable”. Also, the “Time vitamin E acetate present in tears of rabbit eyes” value in data set [2] was “at least 12 days”. For the same compound, the concentration at 1 day in data set [2] (rabbit, tears, topical, Day 1) is 5250 ng/mL. Also, the concentration at 4 day in data set [2] (rabbit, tears, topical, Day 4) amounted to 114 ng/mL. The concentration at 7 day in data set [2] (rabbit, tears, topical, Day 7) was found to be 98.6 ng/mL. The concentration at 12 day in data set [2] (rabbit, tears, topical, Day 12) came out at 27.4 ng/mL.

The values above are taken from patent US11497710B2, “Eye drop formulation and method for sustained delivery of medicament to the retina” (Chibi, Inc., priority 2018, dated 2022).
